# Laboratory results: PubChem BioAssay (NCI)
#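 Compound exposure: 48 hours, 5 concentrations, 96-well plates. GI50 is the concentration that inhibits growth by half. TGI is the concentration that stops growth completely.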
# How the values were obtained:
# Assay in all cases: DTP human tumour cell line panel, 48 h
# SNB-19 CNS = system: SNB-19 CNS
# OVCAR-8 ovarian = system: OVCAR-8 ovarian
# OVCAR-4 ovarian = system: OVCAR-4 ovarian
# MOLT-4 leukemia = system: MOLT-4 leukemia
# HOP-62 NSCLC = system: HOP-62 NSCLC
# TK-10 renal = system: TK-10 renal
# HCC-2998 colon = system: HCC-2998 colon
# SN12C renal = system: SN12C renal
# SW-620 colon = system: SW-620 colon
# T-47D breast = system: T-47D breast
Structure (SMILES),GI50 (SNB-19 CNS),TGI (SNB-19 CNS),GI50 (OVCAR-8 ovarian),TGI (OVCAR-8 ovarian),GI50 (OVCAR-4 ovarian),TGI (OVCAR-4 ovarian),GI50 (MOLT-4 leukemia),TGI (MOLT-4 leukemia),GI50 (HOP-62 NSCLC),TGI (HOP-62 NSCLC),GI50 (TK-10 renal),TGI (TK-10 renal),GI50 (HCC-2998 colon),TGI (HCC-2998 colon),GI50 (SN12C renal),TGI (SN12C renal),GI50 (SW-620 colon),TGI (SW-620 colon),TGI (T-47D breast)
COc1ccc(-c2c(C#N)c(N3CCOCC3)nc3[nH]c(=S)[nH]c(=S)c23)cc1OC,> 100 µM,> 100 µM,34.5 µM,> 100 µM,76.6 µM,> 100 µM,39.6 µM,> 100 µM,83.2 µM,> 100 µM,34.5 µM,> 100 µM,36 µM,> 100 µM,21.7 µM,91.3 µM,49.1 µM,> 100 µM,–
CC(C)C1CN(C(=O)OCc2ccccc2)C2N1C(=O)C2(C)OCc1ccccc1 (centres undefined),–,> 100 µM,–,> 100 µM,–,> 100 µM,–,84 µM,–,> 100 µM,–,> 100 µM,–,> 100 µM,–,> 100 µM,–,> 100 µM,–
CN(C)CCNC(=O)Cc1ccccc1Nc1c(Cl)cccc1Cl,–,31.9 µM,–,37.1 µM,–,50.6 µM,–,36.7 µM,–,28.5 µM,–,27.2 µM,–,24.7 µM,–,31.4 µM,–,34.5 µM,–
CC12c3ccccc3C(OC=O)(c3ccccc31)C1(C)c3ccccc3C2(OC=O)c2ccccc21,–,> 100 µM,–,> 100 µM,–,> 100 µM,–,68.5 µM,–,> 100 µM,–,> 100 µM,–,> 100 µM,–,> 100 µM,–,> 100 µM,–
O=C1c2cccc3cccc(c23)C(=O)N1CCN(CCO)CCO,–,> 100 µM,–,35 µM,–,66 µM,–,80.8 µM,–,> 100 µM,–,62.3 µM,–,84.9 µM,–,74.3 µM,–,46 µM,–
CCCCCCCCCCCC[N+]12CC[N+](CCN)(CC1)CC2,–,64.3 µM,–,> 100 µM,–,> 100 µM,–,> 100 µM,–,> 100 µM,–,39.7 µM,–,> 100 µM,–,> 100 µM,–,> 100 µM,–
COCOCCC#CCO,–,> 100 µM,–,> 100 µM,–,–,–,> 100 µM,–,–,–,> 100 µM,–,> 100 µM,–,> 100 µM,–,> 100 µM,–
CCC(C)(C)n1c(C)nc2c1C(=O)c1ccccc1C2=O,–,> 100 µM,–,> 100 µM,–,> 100 µM,–,> 100 µM,–,> 100 µM,–,> 100 µM,–,> 100 µM,–,> 100 µM,–,> 100 µM,–
O=[N+]([O-])c1cccnc1N=Nc1c(O)[nH]c2ccccc12,–,58.5 µM,–,> 100 µM,–,73 µM,–,> 100 µM,–,60.7 µM,–,40.8 µM,–,–,–,86.5 µM,–,87.8 µM,–
Cc1cc(C)nc(NS(=O)(=O)c2ccc(Nc3c4ccccc4nc4c(C(=O)N5CCN(CCO)CC5)cccc34)cc2)n1,–,> 100 µM,–,> 100 µM,–,> 100 µM,–,> 100 µM,–,> 100 µM,–,> 100 µM,–,> 100 µM,–,> 100 µM,–,> 100 µM,–
Cc1nc2c(N)ncnc2o1,–,> 100 µM,–,> 100 µM,–,> 100 µM,–,> 100 µM,–,> 100 µM,–,> 100 µM,–,> 100 µM,–,> 100 µM,–,> 100 µM,–
CCOc1ccc(OCC(=O)O)c2c1CCCC2=O,–,> 100 µM,–,> 100 µM,–,> 100 µM,–,> 100 µM,–,> 100 µM,–,> 100 µM,–,> 100 µM,–,> 100 µM,–,> 100 µM,–
O=C(O)c1ccc(CNCc2ccccc2)cc1,–,> 100 µM,–,> 100 µM,–,> 100 µM,–,> 100 µM,–,> 100 µM,–,> 100 µM,–,–,–,> 100 µM,–,> 100 µM,> 100 µM
Cc1cc(C(=O)CSC(=S)SC(C)(C)C)ccc1Cl,–,32 µM,–,> 100 µM,–,> 100 µM,–,62.9 µM,–,37.4 µM,–,60 µM,–,30.3 µM,–,43.6 µM,–,68.3 µM,–
Oc1oc(C(=C2N=c3ccccc3=N2)c2ccc(Cl)cc2)c(O)c1-c1ccc(Cl)cc1,–,> 100 µM,–,> 100 µM,–,> 100 µM,–,7.53 µM,–,4.51 µM,–,11.5 µM,–,20.8 µM,–,> 100 µM,–,68.3 µM,–
C/C(=N\NC(N)=O)c1sc(-c2nc(C)c(/C(C)=N/NC(N)=O)s2)nc1C,–,> 100 µM,–,> 100 µM,–,> 100 µM,–,> 100 µM,–,> 100 µM,–,> 100 µM,–,> 100 µM,–,> 100 µM,–,–,–
O=C1C=C(c2c(O)ccc3ccccc23)c2cc(O)ccc2C1=O,–,31.3 µM,–,28.9 µM,–,26.1 µM,–,8.67 µM,–,35.4 µM,–,35.4 µM,–,33.6 µM,–,32.4 µM,–,34.3 µM,–
O=C1C=C(Nc2ccc(Cl)cc2C(=O)c2ccccc2)c2ccccc2C1=O,–,> 100 µM,–,> 100 µM,–,> 100 µM,–,> 100 µM,–,> 100 µM,–,> 100 µM,–,> 100 µM,–,> 100 µM,–,> 100 µM,–
CN1Nc2ccccc2CC1=O,–,> 100 µM,–,> 100 µM,–,> 100 µM,–,–,–,> 100 µM,–,> 100 µM,–,> 100 µM,–,> 100 µM,–,> 100 µM,–
Cc1cc2c(cc1C)[n+](=O)cc(C(=O)C/C(=N/NC(=S)NN)C(=O)Nc1cccc(C(F)(F)F)c1)n2[O-],–,> 100 µM,–,> 100 µM,–,> 100 µM,–,> 100 µM,–,> 100 µM,–,> 100 µM,–,> 100 µM,–,> 100 µM,–,> 100 µM,–
CCN(CCNS(C)(=O)=O)c1ccc(N)c(C)c1,17.7 µM,33.8 µM,3.94 µM,15.2 µM,6.39 µM,19.4 µM,23.1 µM,59.6 µM,16.2 µM,31.1 µM,3.44 µM,7.73 µM,16.8 µM,33.9 µM,11.4 µM,23.9 µM,2.25 µM,5.31 µM,–
COc1ccc(NC(=O)CSc2nnc(-c3ccc(NC(C)=O)cc3)o2)cc1,–,–,–,36.6 µM,–,30.3 µM,–,40.9 µM,–,68.6 µM,–,41.2 µM,–,35.4 µM,–,41.9 µM,–,–,–
